Assay results taken from ChEMBL document CHEMBL4308841, “Synthesis, in vitro antiproliferative activity, and kinase inhibitory effects of pyrazole-containing diarylureas and diarylamides” (Eur J Med Chem, 2018).

Columns and labels:
[1] = tested on: M14; test: Growth inhibition of human M14 cells incubated for 48 hrs by sulforhodamine B assay; type: functional, cell-based; conditions: M14, 48 h
[2] = tested on: MDA-MB-231; test: Growth inhibition of human MDA-MB-231 cells assessed as cell growth at 1 uM incubated for 48 hrs by sulforhodamine B assay relative to control; type: functional; conditions: MDA-MB-231, 48 h, read-out: Activity
[3] = tested on: SK-OV-3; test: Growth inhibition of human SKOV3 cells assessed as cell growth at 1 uM incubated for 48 hrs by sulforhodamine B assay relative to control; type: functional; conditions: SK-OV-3, 48 h, read-out: Activity
[4] = tested on: NCI-H522; test: Growth inhibition of human NCI-H522 cells assessed as cell growth at 0.1 uM incubated for 48 hrs by sulforhodamine B assay relative to control; type: functional; conditions: NCI-H522, 48 h, read-out: Activity
[5] = tested on: SNB-19; test: Growth inhibition of human SNB19 cells incubated for 48 hrs by sulforhodamine B assay; type: functional, cell-based; conditions: SNB-19, 48 h
[6] = tested on: U-251; test: Growth inhibition of human U251 cells assessed as cell growth at 0.1 uM incubated for 48 hrs by sulforhodamine B assay relative to control; type: functional; conditions: U-251, 48 h, read-out: Activity
[7] = tested on: HL-60(TB); test: Growth inhibition of human HL-60(TB) cells assessed as cell growth at 1 uM incubated for 48 hrs by sulforhodamine B assay relative to control; type: functional; conditions: HL-60, 48 h, read-out: Activity
[8] = tested on: RPMI-8226; test: Growth inhibition of human RPMI8226 cells incubated for 48 hrs by sulforhodamine B assay; type: functional, cell-based; conditions: RPMI-8226, 48 h
[9] = tested on: T47D; test: Growth inhibition of human T47D cells assessed as cell growth at 1 uM incubated for 48 hrs by sulforhodamine B assay relative to control; type: functional; conditions: read-out: Activity
[10] = tested on: BT-549; test: Growth inhibition of human BT549 cells assessed as cell growth at 0.1 uM incubated for 48 hrs by sulforhodamine B assay relative to control; type: functional; conditions: BT-549, 48 h, read-out: Activity
[11] = tested on: KM12; test: Growth inhibition of human KM12 cells assessed as cell growth at 1 uM incubated for 48 hrs by sulforhodamine B assay relative to control; type: functional; conditions: KM12, 48 h, read-out: Activity
[12] = tested on: Hs-578T; test: Growth inhibition of human Hs578T cells assessed as cell growth at 0.01 uM incubated for 48 hrs by sulforhodamine B assay relative to control; type: functional; conditions: read-out: Activity
[13] = tested on: RPMI-8226; test: Growth inhibition of human RPMI8226 cells assessed as cell growth at 100 uM incubated for 48 hrs by sulforhodamine B assay relative to control; type: functional; conditions: RPMI-8226, 48 h, read-out: Activity
[14] = tested on: SF-539; test: Growth inhibition of human SF539 cells assessed as cell growth at 0.1 uM incubated for 48 hrs by sulforhodamine B assay relative to control; type: functional; conditions: SF-539, 48 h, read-out: Activity
[15] = tested on: Malme-3M; test: Growth inhibition of human MALME-3M cells assessed as cell growth at 0.01 uM incubated for 48 hrs by sulforhodamine B assay relative to control; type: functional; conditions: read-out: Activity
[16] = tested on: MOLT-4; test: Growth inhibition of human MOLT4 cells assessed as cell growth at 100 uM incubated for 48 hrs by sulforhodamine B assay relative to control; type: functional; conditions: MOLT-4, 48 h, read-out: Activity
[17] = tested on: Malme-3M; test: Growth inhibition of human MALME-3M cells assessed as cell growth at 100 uM incubated for 48 hrs by sulforhodamine B assay relative to control; type: functional; conditions: read-out: Activity
[18] = tested on: SK-MEL-28; test: Growth inhibition of human SK-MEL-28 cells assessed as cell growth at 0.01 uM incubated for 48 hrs by sulforhodamine B assay relative to control; type: functional; conditions: SK-MEL-28, 48 h, read-out: Activity
[19] = tested on: SK-MEL-2; test: Growth inhibition of human SK-MEL-2 cells assessed as cell growth at 0.01 uM incubated for 48 hrs by sulforhodamine B assay relative to control; type: functional; conditions: SK-MEL-2, 48 h, read-out: Activity
[20] = tested on: LOX IMVI; test: Growth inhibition of human LOXIMVI cells assessed as cell growth at 100 uM incubated for 48 hrs by sulforhodamine B assay relative to control; type: functional; conditions: read-out: Activity
[21] = tested on: PC-3; test: Growth inhibition of human PC3 cells assessed as cell growth at 0.01 uM incubated for 48 hrs by sulforhodamine B assay relative to control; type: functional; conditions: PC-3, 48 h, read-out: Activity
[22] = tested on: SN12C; test: Growth inhibition of human SN12C cells assessed as cell growth at 1 uM incubated for 48 hrs by sulforhodamine B assay relative to control; type: functional; conditions: read-out: Activity
[23] = tested on: HL-60(TB); test: Growth inhibition of human HL-60(TB) cells assessed as cell growth at 100 uM incubated for 48 hrs by sulforhodamine B assay relative to control; type: functional; conditions: HL-60, 48 h, read-out: Activity
[24] = tested on: NCI-H23; test: Growth inhibition of human NCI-H23 cells incubated for 48 hrs by sulforhodamine B assay; type: functional, cell-based; conditions: NCI-H23, 48 h
[25] = tested on: MDA-MB-435; test: Growth inhibition of human MDA-MB-435 cells assessed as cell growth at 0.1 uM incubated for 48 hrs by sulforhodamine B assay relative to control; type: functional; conditions: MDA-MB-435, 48 h, read-out: Activity
[26] = tested on: NCI/ADR-RES; test: Growth inhibition of human NCI/ADR-RES cells incubated for 48 hrs by sulforhodamine B assay; type: functional, cell-based
[27] = tested on: UACC-62; test: Growth inhibition of human UACC62 cells assessed as cell growth at 1 uM incubated for 48 hrs by sulforhodamine B assay relative to control; type: functional; conditions: UACC-62, 48 h, read-out: Activity
[28] = tested on: K562; test: Growth inhibition of human K562 cells assessed as cell growth at 1 uM incubated for 48 hrs by sulforhodamine B assay relative to control; type: functional; conditions: K562, 48 h, read-out: Activity
[29] = tested on: NCI-H322M; test: Growth inhibition of human NCI-H322M cells incubated for 48 hrs by sulforhodamine B assay; type: functional, cell-based
[30] = read-out: LC50 (the source's name)
[31] = read-out: pLC50 (the source's name) (converted)

For `COc1cc(Cl)cc(-c2nn(-c3cccc(NC(=O)c4ccc(N5CCOCC5)c(C(F)(F)F)c4)c3)cc2-c2ccncc2)c1`, the GI50 ([1]; read-out: GI50) was 7.93 µM, the CC50 [1, 30] was > 100 µM and the TGI ([1]; read-out: TGI) was > 100 µM. The GI50 ([1]; read-out: pGI50 (converted)) was 7.94 µM, the CC50 [1, 31] was > 100 µM and the TGI ([1]; read-out: pTGI (converted)) was > 100 µM. It also gave a growth at 1 µM [2] of 78%, a growth at 1 µM [3] of 103% and a growth at 0.1 µM [4] of 81%. For the same compound, the GI50 ([5]; read-out: GI50) was > 100 µM, the CC50 [5, 30] was > 100 µM and the TGI ([5]; read-out: TGI) was > 100 µM. For the same compound, the GI50 ([5]; read-out: pGI50 (converted)) was > 100 µM, the CC50 [5, 31] was > 100 µM and the TGI ([5]; read-out: pTGI (converted)) was > 100 µM. The growth at 0.1 µM [6] was 95%, the growth at 1 µM [7] was 105% and the IC50 [8] was 1.5 µM. The GI50 ([8]; read-out: GI50) was 1.5 µM, the CC50 [8, 30] was > 100 µM and the TGI ([8]; read-out: TGI) was > 100 µM. The GI50 ([8]; read-out: pGI50 (converted)) was 1.51 µM, the CC50 [8, 31] was > 100 µM and the TGI ([8]; read-out: pTGI (converted)) was > 100 µM. It also gave a growth at 1 µM [9] of 93%, a growth at 0.1 µM [10] of 100% and a growth at 1 µM [11] of 52%. It also gave a growth at 0.01 µM [12] of 92%, a growth at 100 µM [13] of 10% and a growth at 0.1 µM [14] of 85%. The growth at 0.01 µM [15] was 91%, the growth at 100 µM [16] was 29% and the growth at 100 µM [17] was 23%. It also gave a growth at 0.01 µM [18] of 97%, a growth at 0.01 µM [19] of 96% and a growth at 100 µM [20] of 25%. For the same compound, the growth at 0.01 µM [21] was 97%, the growth at 1 µM [22] was 89% and the growth at 100 µM [23] was -15%. For the same compound, the GI50 ([24]; read-out: GI50) was 3.07 µM, the LC50 ([24]; read-out: LC50) was > 100 µM and the TGI ([24]; read-out: TGI) was > 100 µM. The GI50 ([24]; read-out: pGI50 (converted)) was 30.9 µM, the LC50 ([24]; read-out: pLC50 (converted)) was > 100 µM and the TGI ([24]; read-out: pTGI (converted)) was > 100 µM. For the same compound, the growth at 0.1 µM [25] was 98%, the GI50 ([26]; read-out: GI50) was 5.17 µM and the CC50 [26, 30] was > 100 µM. The TGI ([26]; read-out: TGI) was > 100 µM, the GI50 ([26]; read-out: pGI50 (converted)) was 6.17 µM and the CC50 [26, 31] was > 100 µM. For the same compound, the TGI ([26]; read-out: pTGI (converted)) was > 100 µM, the growth at 1 µM [27] was 84% and the growth at 1 µM [28] was 91%. The GI50 ([29]; read-out: GI50) was 7.37 µM, the CC50 [29, 30] was > 100 µM and the TGI ([29]; read-out: TGI) was > 100 µM. For the same compound, the GI50 ([29]; read-out: pGI50 (converted)) was 74.1 µM, the CC50 [29, 31] was > 100 µM and the TGI ([29]; read-out: pTGI (converted)) was > 100 µM.
